For series [1], the system named is Balb/c 3T3 clone 31 cells. Description: In vitro study of neutral red cytotoxicity. It is filed as cell-based. Conditions: 24 hours incubation. As to the method:
Evaluate the in vitro cytotoxic potential of the Giovian peptide (SEQ ID No. 1) in culture of Balb/c 3T3 clone 31 cells.
In this study, Balb.c 3T3 clone 31 cells were used, obtained from the supplier Banco de Células do Rio de Janeiro, batch 001242, maintained in cultivation with DMEM (Dulbecco's Modified Eagle's Medium) with the addition of supplements, in an oven at 37° C. and 5% of CO2, and were manipulated inside the laminar flow hood. In passage 04 after thawing, the cells were distributed in 96-well plates maintained in culture under the same conditions described.
The solutions containing the control, positive control and sample groups were applied to the cell culture, 100 μL per well in quadruplicate for each group, followed by incubation in an oven at 37° C. and 5% CO2 for 24 hours. After washing, cell viability was analyzed with the neutral red indicator, 100 μL per well.
The results were evaluated using Microsoft Excel software. The control group was normalized to 100% and the percentage of cell viability in the sample and in the positive control was calculated in relation to the control. Samples are considered cytotoxic when they have 30% or more reduction in cell viability.

The subject of a further series is myoblast cells. In kind it is cell-based.
Series [2] in a line: Appearance of solubilized sample in cell culture medium. It is filed as physicochemical. The settings on record: 1 mg/mL in cell culture medium.

Where a SMILES comes first, the peptide text is derived from it.

As for `CC[C@H](C)[C@H](NC(=O)[C@H](CC(C)C)NC(=O)[C@H](CCCCN)NC(=O)CNC(=O)[C@H](CC(C)C)NC(=O)[C@H](CCCCN)NC(=O)[C@H](CC(C)C)NC(=O)[C@H](Cc1c[nH]c2ccccc12)NC(=O)[C@H](Cc1ccccc1)NC(=O)[C@@H](NC(=O)[C@H](CCCCN)NC(=O)[C@H](CCCNC(=N)N)NC(=O)[C@H](Cc1ccccc1)NC(=O)[C@@H]1CCCN1C(=O)[C@@H](NC(=O)[C@H](Cc1ccccc1)NC(=O)CNC(=O)[C@@H]1CCCN1C(=O)[C@@H]1CCCN1C(=O)[C@@H](N)CCCNC(=N)N)[C@@H](C)O)[C@@H](C)CC)C(=O)N[C@@H](CC(=O)O)C(=O)N[C@@H](C)C(=O)N[C@@H](CC(C)C)C(N)=O` [Giovian] (H-RPPGFTPFRKIFWLKLGKLIDAL-NH2), the “concentrations at which the sample did not present cytotoxic effect (cytotoxic = 30% or more reduction in cell viability)” value in series [1] is “lower than 0.0375 mg/ml”. In the series with myoblast cells, the “cell relaxation (reduction of cell contractility, collagen disc volume)” value was “increase in cell relaxation”. Also, the “appearance of solubilized sample” value in series [2] was “fully solubilized”.
